The source of these data is PMC8565742 (PLoS Neglected Tropical Diseases, 2021).

For test [1], the system named is Sm.TRPMPZQ[R1514A]. The test can be described thus: Ca2+ signal in cells expressing the binding pocket mutant. The format is cell-based, Schistosoma mansoni.
The test system of test [2] is schistosomes. Also on record: method as in PMID 27128493. The following applies: read-out: IC50 in phenotypic assays; cited from earlier work.
In test [3] the test system is untransfected HEK293 cells. The test can be described thus: Counterscreen, antagonist mode, Ca2+ signal in untransfected HEK cells. The class given is cell-based. The following applies: counterscreen titration; for EC50: Homo sapiens, HEK293, unit inferred, read-out: HEK ANT Final EC50. How it is done:
HEK cells were transfected with cDNA (400μg/ml DNA) encoding Sm.TRPMPZQ using a Maxcyte STX electroporation system and incubated overnight at 37°C. This system is uniquely capabable of large scale transfections providing one batch of cells ready for large scale HTS [30]. Briefly, the HEK cells were resuspended at 10^8/ml in Maxcyte electroporation buffer. Plasmid DNA was added to the cells in buffer to achieve a concentration of 400 μg/ml from a stock of 5mg/ml (in TE buffer). This mixture was loaded into the appropriate cassette, inserted into the machine, and cells electroporated. Cells were then frozen to provide a single supply of transfected cells for all subsequent assays. On the day of the assays, cells were thawed in a 37°C waterbath, and resuspended in DMEM + 10% FBS and counted. The cells were pelleted by centrifugation at 170xg for 5 minutes. The media was aspirated, and the remaining pellet was resuspended in 1x HBSS with 20 mM HEPES and 1% DMSO to achieve 1.33x10^6cells/ml. This cell suspension was then dispensed at 3 μl/well to the 1536 well plates (Greiner Bio One part 789072) at a density of 4,000 cells/well. Measurements of fluorescence intensity (λex = 470 nm, λem = 535 nm) were made using a FLIPR (Molecular Devices FLIPR Tetra). A read of basal fluorescence values was made (5s) prior to addition of compounds or controls (30 nl). In both ‘agonist’ and ‘antagonist mode’, the total assay volume was 6μl (1% DMSO). […] Ligand performance was categorized using an algorithm based on the activity of the entire dataset to define a ‘hit-cutoff’ parameter for both agonist-mode and antagonist-mode screening. Any compound with greater percent activation than this cutoff was assigned as ‘active’ prior to titration and counter-screening. Titration assays were executed using the same reagents, protocols and detection systems, done as 10-point concentration-response curves, performed in triplicate. Counter-screening was performed using untransfected HEK293 cells for comparison with results testing the same compounds effect on cells expressing Sm.TRPMPZQ, with ATP used as the positive control. For each compound, activity was plotted against compound concentration and data were fitted with a sigmoidal function. In order to be considered a hit at this stage a compound must achieve a EC50<5 μM for agonists and IC50 <5 μM for antagonists. All compounds selected for titration were subjected to LC-MS analysis to confirm mass and sample purity. ChemAxon (https://www.chemaxon.com) academic licensing was provided for the use of Instant JChem (ver. 15.10.12.0) to perform compound mining of the libraries utilized in this effort.
(The purpose of a counterscreen is to sort out artefacts and off-target activity.)

Test [4] concerns the target T1, Sm.TRPMPZQ (Schistosoma mansoni, UniProt A0A5K4F0X5). In words: Single channel recording, inside-out patch, HEK293 stably expressing Sm.TRPMPZQ. The class given is biochemical. The following applies: for mean slope single-channel conductance: agonist 10 μM, Ca2+-free, inside-out, mean ± SD. How it is done: For electrophysiological analysis, a HEK293 cell line stably expressing Sm.TRPMPZQ [7] was generated using the Flp-In T-REx system (K650001, Thermofisher Scientific, Carlsbad, CA). Flp-In T-REx HEK293 cells were cultured in Dulbecco’s modified Eagle’s medium supplemented with 10% fetal bovine serum, penicillin (100 units/ml), streptomycin (100 μg/ml), L-glutamine (290 μg/ml), blasticidin (10 μg/ml), and hydromycin B (100 μg/ml). HEK293 cells were plated onto glass coverslips and Sm.TRPMPZQ expression induced by addition of tetracycline (2 μg/ml) to the media 24–48 hours before recording. Prior to recording, coverslips were secured within a recording chamber of an Olympus BX51WI upright microscope. Cells were bathed in a solution containing 145 mM KCl, 10 mM HEPES, 1 mM EGTA (pH 7.2, 310–315 mOsm/kg with sucrose). The pipette solution contained 140 mM LiCl, 10 mM HEPES, 1 mM EGTA (pH 7.4, 280–285 mOsm/kg with sucrose). Patch pipettes were made of borosilicate glass (BF150-110-10, Sutter Instrument, Novato, CA) pulled on a vertical puller (Narishige, Amityville, NY, Model PC-10) with resistances 8–10 MΩ. […] Signals were filtered with an 8-pole Bessel low pass filter at 1 kHz, and sampled at 20 kHz. Open probability (Popen) was assessed in single channel search mode using Clampfit 10 software. All recordings were done at room temperature. Data represent mean±standard error for ≥3 independent experiments.

In test [5] the test system is adult schistosome worms. In words: Schistosome mobility assay ex vivo. The format is cell-based, S. mansoni. Here is the method: Adult schistosomes were harvested from the mesenteric vasculature of female Swiss Webster mice previously infected (~49 days earlier) with S. mansoni cercariae (NMRI strain) by the Schistosomiasis Resource Center at the Biomedical Research Institute (BRI, Rockville, MD). Harvested schistosomes were washed in RPMI 1640 supplemented with 5% heat inactivated FBS (Gibco), HEPES (25 mM) and penicillin-streptomycin (100 units/mL). After isolation, worms were incubated overnight (37°C/5% CO2) in vented petri dishes (100x25 mm). Movement assays were performed using male and female worms in six well dishes (~5 individual worms/3ml media per well). Video recordings of worm motility (4 frames/sec) were captured using a Zeiss Discovery v20 stereomicroscope coupled to a QiCAM 12-bit cooled color CCD camera controlled by Metamorph imaging software.

In test [6] the target is T1, Sm.TRPMPZQ. The following applies: confocal Ca2+ imaging; cited from earlier work.

SMILES strings stand for the structures. Where two headings read alike, the source gives them in different places.

T1 sequence (A0A5K4F0X5 entry or part of it): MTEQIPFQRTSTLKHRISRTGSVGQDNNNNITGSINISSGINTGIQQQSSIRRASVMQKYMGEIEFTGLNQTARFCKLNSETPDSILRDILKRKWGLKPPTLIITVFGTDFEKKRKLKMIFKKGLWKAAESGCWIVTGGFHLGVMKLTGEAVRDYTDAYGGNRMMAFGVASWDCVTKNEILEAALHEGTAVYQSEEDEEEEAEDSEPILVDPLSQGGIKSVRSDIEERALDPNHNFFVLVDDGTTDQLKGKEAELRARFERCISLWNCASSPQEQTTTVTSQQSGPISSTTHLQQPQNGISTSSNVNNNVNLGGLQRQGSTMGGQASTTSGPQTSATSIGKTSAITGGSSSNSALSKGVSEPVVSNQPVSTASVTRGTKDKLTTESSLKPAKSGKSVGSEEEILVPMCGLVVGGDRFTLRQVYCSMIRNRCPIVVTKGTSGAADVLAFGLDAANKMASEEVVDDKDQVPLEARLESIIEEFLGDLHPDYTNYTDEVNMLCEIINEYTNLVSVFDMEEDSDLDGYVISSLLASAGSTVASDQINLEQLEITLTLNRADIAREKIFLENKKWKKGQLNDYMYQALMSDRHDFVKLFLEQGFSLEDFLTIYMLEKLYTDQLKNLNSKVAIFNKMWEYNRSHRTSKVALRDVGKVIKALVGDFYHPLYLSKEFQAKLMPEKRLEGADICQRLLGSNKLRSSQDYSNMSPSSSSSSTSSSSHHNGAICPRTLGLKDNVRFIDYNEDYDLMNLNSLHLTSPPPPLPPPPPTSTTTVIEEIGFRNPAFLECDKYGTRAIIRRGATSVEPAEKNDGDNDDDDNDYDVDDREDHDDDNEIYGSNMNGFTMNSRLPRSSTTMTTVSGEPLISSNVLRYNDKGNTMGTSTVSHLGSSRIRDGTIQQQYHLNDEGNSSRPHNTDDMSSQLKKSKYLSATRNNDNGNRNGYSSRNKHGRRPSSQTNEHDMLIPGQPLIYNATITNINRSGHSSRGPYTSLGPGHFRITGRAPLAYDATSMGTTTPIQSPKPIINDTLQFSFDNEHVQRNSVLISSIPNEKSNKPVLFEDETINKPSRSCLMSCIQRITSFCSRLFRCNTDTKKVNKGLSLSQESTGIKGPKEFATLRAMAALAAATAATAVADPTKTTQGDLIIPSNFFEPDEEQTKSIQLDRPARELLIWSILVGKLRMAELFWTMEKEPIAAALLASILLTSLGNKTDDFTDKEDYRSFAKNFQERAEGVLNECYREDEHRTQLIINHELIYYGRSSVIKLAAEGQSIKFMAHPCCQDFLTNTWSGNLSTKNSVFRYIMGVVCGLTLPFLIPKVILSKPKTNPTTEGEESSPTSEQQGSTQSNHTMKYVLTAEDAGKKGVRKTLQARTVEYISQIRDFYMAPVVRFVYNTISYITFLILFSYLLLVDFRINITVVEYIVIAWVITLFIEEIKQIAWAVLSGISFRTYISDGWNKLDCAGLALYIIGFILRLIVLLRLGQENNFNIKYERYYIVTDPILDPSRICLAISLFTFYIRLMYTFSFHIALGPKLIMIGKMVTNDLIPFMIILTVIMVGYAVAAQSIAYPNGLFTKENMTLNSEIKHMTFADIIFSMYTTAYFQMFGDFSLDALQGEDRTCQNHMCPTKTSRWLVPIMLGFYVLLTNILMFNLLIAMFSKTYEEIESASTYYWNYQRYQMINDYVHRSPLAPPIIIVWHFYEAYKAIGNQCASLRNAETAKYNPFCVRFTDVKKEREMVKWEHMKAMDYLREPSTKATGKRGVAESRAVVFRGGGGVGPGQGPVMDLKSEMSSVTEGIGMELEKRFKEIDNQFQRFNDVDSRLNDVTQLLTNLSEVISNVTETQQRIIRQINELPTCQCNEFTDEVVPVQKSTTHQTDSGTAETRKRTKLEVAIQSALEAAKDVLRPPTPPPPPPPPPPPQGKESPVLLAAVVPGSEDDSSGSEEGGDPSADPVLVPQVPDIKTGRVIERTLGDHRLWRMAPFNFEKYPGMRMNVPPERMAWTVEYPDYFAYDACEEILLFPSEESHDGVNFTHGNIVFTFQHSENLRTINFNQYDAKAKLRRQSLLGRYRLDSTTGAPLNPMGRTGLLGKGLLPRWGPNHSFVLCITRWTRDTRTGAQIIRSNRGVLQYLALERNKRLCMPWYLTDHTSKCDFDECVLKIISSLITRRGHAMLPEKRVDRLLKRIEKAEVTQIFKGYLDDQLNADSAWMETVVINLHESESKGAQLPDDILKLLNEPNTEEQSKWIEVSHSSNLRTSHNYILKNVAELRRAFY

`COc1ccc(-c2nnc3ccc(-c4cccc(C(C)C)c4)cn23)cc1OC` [AG1, 3-(3,4-Dimethoxyphenyl)-6-(3-propan-2-ylphenyl)-[1,2,4]triazolo[4,3-a]pyridine]: the “Ca2+ elevation at binding site mutant” value in test [1] is given as “ablated AG1 activity”. For the same compound, the IC50 (commonly the concentration that gives 50% inhibition) in test [2] was about 1.6 µM. Also, in test [3] (S2 Table), the EC50 (in general, the concentration at which the effect is half-maximal) was found to be 10.3 µM and the “HEK ANT Averaged Max % Response” value is given as 64.2957%. Further, the “mean slope single-channel conductance” value in test [4] is given as 61 ± 4 pS. Moreover, the “effect on adult worms ex vivo” value in test [5] (agonist alone) is reported as “evoked a sustained contraction”.
For `Cc1onc(-c2ccccc2)c1C(=O)N1CCN(C2c3ccccc3-c3ccccc32)CC1` [ANT1, 1-(9H-fluoren-9-yl)-4-(5-methyl-3-phenyl-1,2-oxazole-4-carbonyl)piperazine], in test [3] (S3 Table), the EC50 was over 12.4 µM and the “HEK ANT Averaged Max % Response” value came out at 43.1011%. Also, in test [4] (50 μM, channels activated by PZQ or AG1 (10 μM)), the “effect on single channel open probability (Popen)” value is reported as “decreased Popen”. In test [5] (50μM, PZQ 250 nM, 24 hours, compared to PZQ alone), the “recovery of worms in continued presence of PZQ” value is given as “enhanced recovery”. In addition, the “effect on worm motility” value in test [5] (applied alone to intact worms) is on record as “did not change worm motility”.
On to `O=C(C1CCCCC1)N1CC(=O)N2CCc3ccccc3C2C1` (centres unmarked) [PZQ, praziquantel, reference compound], for which, in test [1], the “Ca2+ elevation at binding site mutant” value is given as “did not elevate Ca^2+”. The EC50 in test [3] (S2 Table) is over 12.4 µM. Also, the “HEK ANT Averaged Max % Response” value is on record as 20.9575% in test [3] (S2 Table, listed as SR-01000003100-3) and 9.578% in test [3] (S2 Table, listed as SR-01000003100-19). In addition, the “mean slope single-channel conductance” value in test [4] was 76 ± 8 pS. In test [6], the “ΔF/F, amplitude of Ca2+ transient” value is reported as 12.3±2.1.
